In patent publication US20100297261A1, “Food Product and Fortification System Therefor” (priority 2005, published 2010):

Experiments:
[1] = guinea pigs; split by α-glucosidase in brush border of small intestine; cited from earlier work
[2] = humans; split by hydrolases in the small intestine; cited from earlier work
[3] = In vitro estimation of iron dialyzability (dough, simulated gastrointestinal conditions)
Procedure: All glass vessels used were incubated over night in 10% (v/v) HNO3 in water and subsequently rinsed with demineralised water. […] The dough was divided in portions of 16 g and stored at −20° C. until dissolution experiments took place.
The dough portions were suspended in water and homogenized for 10 s with a Braun Blender (type 4142) set at maximum speed. Subsequently, water, 0.45 g pepsin and HCl were added to a yield a 90 ml suspension of dough in simulated gastric fluid of pH 2.0. A 20 g sample was taken from the homogenous suspension for determination of total iron. The suspension was transferred to the vessel of a dissolution apparatus (VanK1 VK700, Varian; United States Pharmacopoeia (USP) dissolution apparatus, type II. Conditions for rotations per minute enzyme types and concentrations etc. taken as in the USP; <711> Dissolution; USP26/NF21; 2003; p. 1578-1579). […]
Dialyzable iron (sum of Fe^2+ and Fe^3+) was determined using a Hitachi 912 Analyser and reagents for the analysis of iron in human serum based on FerroZine (Roche Diagnostics Nederland BV). […]
Dialyzable iron is expressed as the percentage of the total iron present in the digest, assuming that it had equilibrated across the dialysis membrane by the time the content of the dialysis bag was collected.

SMILES | Intestinal absorption of intact compound [1] | Free ascorbic acid in the blood after consumption [2] | In vitro dialyzable Ionic iron (% of total iron) ([3]; dough with 50 mg/Kg iron from ferrous sulphate, Fe:enhancer 1:3, means ± SD of 4 or 5 experiments) | Relative availability ([3]; relative to the availability of iron from FeSO4)
O=C1O[C@H]([C@@H](O)CO)C(O)=C1O[C@H]1O[C@H](CO)[C@@H](O)[C@H](O)[C@H]1O [AA-2G, 2-O-α-D-glucopyranosyl-L-ascorbic acid] | cannot be absorbed | significant increase in free ascorbic acid in the blood |  | 
O=S(=O)([O-])[O-].[Fe+2] [Ferrous sulphate, ferrous sulphate] |  |  | 3.4 ± 1.8 % of total iron | 1.0
